The values that follow come from patent US8673951B2, “Isoxazoline-substituted benzamide compound and pesticide” (priority 2005, dated 2014).

What all share (format): in vivo
The test system of experiment [1] is cabbage moth (Plutella xylostella). In words: Insecticidal test against cabbage moth (Test Example 1). To be noted: foliar, 144 h, read-out: insecticidal rate (rate of dead insects).
Experiment [2] concerns common cutworm (Spodoptera litura). Nature of the experiment: Insecticidal test against common cutworm (Test Example 2). To be noted: in Brassica oleracea, foliar, 144 h, read-out: insecticidal rate (rate of dead insects). How it is done:
A 10% emulsifiable concentrate (depending on the compounds, 10% wettable powder was applied for the test) of the compound of the present invention was diluted with water […] To the chemical solution was dipped leaves of cabbage for about 10 seconds, and after air-drying, they were placed in a laboratory dish, then 5-common cutworm (Spodoptera litura) in the stage of second instar larva per the dish were released therein, and the dish was covered with a lid and contained at a thermostat chamber at 25° C. […] Incidentally, the test was carried out with two districts.

Experiment [3] deals with American dog tick (Dermacentor variabilis). In words: Insecticidal test against American dog tick (Test Example 20). Conditions: 96 h, thin film in laboratory dish, 0.1 μg/cm^2 (*), protonymph, after 4 days, read-out: insecticidal rate (rate of dead insects). The procedure: After 400 μl of acetone solution in which 4 mg of the compound of the present invention was dissolved in 40 ml of acetone (concentration 100 ppm) was coated on the bottom face and side face of two laboratory dishes having an inner diameter of 5.3 cm, acetone was vaporized to prepare a thin film of the compound of the present invention on the inner wall of the laboratory dish. As the surface area of the inner wall is 40 cm^2, the treated dosage is […]. […] A number of dead insect(s) after 4 days was counted and a rate of dead insects was calculated by the calculation equation similar to that in Test Example 1. Incidentally, the test was carried out with one district.

The subject of experiment [4] is oriental tea tortix (Homona magnanima). In words: Insecticidal test against oriental tea tortix, Comparative Example 2 (Test Example 24, Table 18). To be noted: cabbage leaf dip, third instar larva, after 6 days. How it is done: (§1) A 10% emulsifiable concentrate of the compound of the present invention or comparative compound was diluted with water containing a spreading agent to prepare a chemical solution with a prescribed concentration. To the chemical solution was dipped leaves of cabbage for about 10 seconds, and after air-drying, they were placed in a laboratory dish, then 7-oriental tea tortix (Homona magnanima) in the stage of third instar larva per the dish were released therein, and the dish was covered with a perforated lid and contained at a thermostat chamber at 25° C. A number of dead insect(s) after 6 days was counted and a rate of dead insects was calculated by the following calculation equation. In the meantime, the test was carried out with two areas. Rate of dead insects (%)=(Number of dead insects/Number of released insects)×100 The rate of dead insects in each prescribed concentration of the compounds tested is shown in Table 18.

In experiment [5] the test system is corn earworm (Helicoverpa armigera). In words: Insecticidal test against corn earworm, Comparative Example 1 (Test Example 23, Table 17). To be noted: cabbage leaf dip, third instar larva, after 6 days. How it is done:
as §1, with “then 7-corn earworm (Helicoverpa armigera)” for “then 7-oriental tea tortix (Homona magnanima)”, “C. Artificial feed (1 cm^3) was added after 2 days of treatment, and a” for “C. A”, “Table 17.” for “Table 18.”

Each structure is given as a SMILES string.

Take `CC(=O)N(C(=O)c1ccc(C2=NOC(c3cc(Cl)cc(Cl)c3)(C(F)(F)F)C2)cc1C)c1ncc(Cl)cn1` (stereo not drawn) [5-100, N-Acetyl-N-(5-chloro-2-pyrimidinyl)-4-[5-(3,5-dichlorophenyl)-5-trifluoromethyl-4,5-dihydroisoxazole-3-yl]-2-methyl benzoic acid amide]: the pest or weed control at 100 ppm in experiment [1] and in experiment [2] was ≥ 80% each time. Besides, the pest or weed control at 0.1 µg/cm2 in experiment [3] was ≥ 80%.

`CC(=O)N(C(=O)c1ccc(C2=NOC(c3cc(Cl)cc(Cl)c3)(C(F)(F)F)C2)cc1C)c1cncnc1` (stereo not drawn) [5-165]: the “Rate of dead insects” value in experiment [4] (0.1 ppm) stood at 14.3%; in experiment [4] (0.3 ppm) it was 57.1%; in experiment [4] (1 ppm), 92.9%; in experiment [4] (3 ppm) it was 100%; in experiment [4] (10 ppm) it was 100%.

`CCN(C(=O)c1ccc(C2=NOC(c3cc(Cl)cc(Cl)c3)(C(F)(F)F)C2)cc1C)c1ccccc1` (stereo not drawn) [5-002, 4-[5-(3,5-Dichlorophenyl)-5-trifluoromethyl-4,5-dihydroisoxazole-3-yl]-N-ethyl-2-methyl benzoic acid anilide]: the pest or weed control at 100 ppm in experiment [1] and in experiment [2] was ≥ 80% in each case. Further, the pest or weed control at 0.1 µg/cm2 in experiment [3] was ≥ 80%.

As to `CO/N=C\NC(=O)c1ccc(C2=NOC(c3cc(Cl)cc(Cl)c3)(C(F)(F)F)C2)cc1C` (stereo not drawn) [6-004, (Z)-4-[5-(3,5-Dichlorophenyl)-5-trifluoromethyl-4,5-dihydro-isoxazole-3-yl]-N-(methoxyiminomethyl)-2-methylbenzoic acid amide], the pest or weed control at 10 ppm in experiment [1] and in experiment [2] was ≥ 80% in each case. Also, the pest or weed control at 0.1 µg/cm2 in experiment [3] was ≥ 80%.

In the case of `Cc1cc(C2=NOC(c3cc(Cl)cc(Cl)c3)(C(F)(F)F)C2)ccc1C(=O)N(C(=O)C(C)C)c1ncc(Br)cn1` (stereo not drawn) [5-122, N-(5-Bromo-2-pyrimidinyl)-4-[5-(3,5-dichlorophenyl)-5-trifluoromethyl-4,5-dihydroisoxazole-3-yl]-N-isobutyryl-2-methyl benzoic acid amide], the pest or weed control at 10 ppm in experiment [1] and in experiment [2] was ≥ 80% in each case. In experiment [3], the pest or weed control at 0.1 µg/cm2 was ≥ 80%.

`CCON=CNC(=O)c1ccc(C2=NOC(c3cc(Cl)cc(Cl)c3)(C(F)(F)F)C2)cc1C` (stereo not drawn) [6-005, 4-[5-(3,5-Dichlorophenyl)-5-trifluoromethyl-4,5-dihydroisoxazole-3-yl]-N-(ethoxyimino-methyl)-2-methyl benzoic acid amide]: the pest or weed control at 10 ppm in experiment [1] and in experiment [2] was ≥ 80% throughout. Moreover, the pest or weed control at 0.1 µg/cm2 in experiment [3] is ≥ 80%.

For the molecule `CON=CN(C)C(=O)c1ccc(C2=NOC(c3cc(Cl)cc(Cl)c3)(C(F)(F)F)C2)cc1C` (stereo not drawn) [7-003, 4-[5-(3,5-Dichlorophenyl)-5-trifluoromethyl-4,5-dihydroisoxazole-3-yl]-N-(methoxyiminomethyl)-N-methyl-2-methylbenzoic acid amide], the pest or weed control at 0.1 µg/cm2 in experiment [3] was ≥ 80%.

Consider `COC(=O)N(COC(C)=O)C(=O)c1ccc(C2=NOC(c3cc(Cl)cc(Cl)c3)(C(F)(F)F)C2)cc1C` (stereo not drawn) [3-033], for which the “Rate of dead insects” value in experiment [5] (1 ppm) is reported as 7.1%; in experiment [5] (3 ppm) it was 50.0%; in experiment [5] (10 ppm) it was 100%; in experiment [5] (33 ppm) it was 100%.

On to `COC(=O)NC(=O)c1ccc(C2=NOC(c3cc(Cl)cc(Cl)c3)(C(F)(F)F)C2)cc1C` (stereo not drawn) [2-003, Methyl N-[4-[5-(3,5-dichlorophenyl)-5-trifluoromethyl-4,5-dihydroisoxazole-3-yl]-2-methylbenzoyl]carbamate], for which the pest or weed control at 100 ppm in experiment [1] and in experiment [2] was ≥ 80% in each case. The pest or weed control at 0.1 µg/cm2 in experiment [3] was ≥ 80%.

For `Cc1cc(C2=NOC(C(F)(F)F)C2c2cc(Cl)cc(Cl)c2)ccc1C(=O)Nc1ncccn1` (stereo not drawn) [Comparative Compound B, reference compound], the “Rate of dead insects” value in experiment [4] (0.1 ppm) turned out to be 0%; in experiment [4] (0.3 ppm), 0%; in experiment [4] (1 ppm), 7.1%; in experiment [4] (3 ppm), 64.3%; in experiment [4] (10 ppm) it was 100%.

`Cc1cc(C2=NOC(c3cc(Cl)cc(Cl)c3)(C(F)(F)F)C2)ccc1C(=O)N(C)C1(Cl)N=CC=CN1` (stereo not drawn) [5-172, N-(2-Chloro-2-pyrimidinyl)-4-[5-(3,5-dichlorophenyl)-5-trifluoromethyl-4,5-dihydro-isoxazole-3-yl]-N-methyl-2-methyl benzoic acid amide]: the pest or weed control at 500 ppm in experiment [1] is ≥ 80%. Further, in experiment [2], the pest or weed control at 10 ppm was ≥ 80%.

Take `COC(=O)N(CC(F)(F)F)C(=O)c1ccc(C2=NOC(C(F)(F)F)C2c2cc(Cl)cc(Cl)c2)cc1C` (stereo not drawn) [Comparative Compound A, reference compound]: the “Rate of dead insects” value in experiment [5] (1 ppm) is 0%; in experiment [5] (3 ppm), 0%; in experiment [5] (10 ppm) it was 28.6%; in experiment [5] (33 ppm), 92.9%.

Turning to `COCC(=O)N(C(=O)c1ccc(C2=NOC(c3cc(Cl)cc(Cl)c3)(C(F)(F)F)C2)cc1C)c1ncc(Cl)cn1` (stereo not drawn) [5-106, N-(5-Chloro-2-pyrimidinyl)-4-[5-(3,5-dichlorophenyl)-5-trifluoromethyl-4,5-dihydro-isoxazole-3-yl]-N-methoxyacetyl-2-methyl benzoic acid amide], the pest or weed control at 10 ppm in experiment [1] and in experiment [2] was ≥ 80% each time. For the same molecule, in experiment [3], the pest or weed control at 0.1 µg/cm2 was ≥ 80%.
